Results published in patent US20230061736A1, “GPR119 AGONISTS” (Kallyope, Inc., priority 2019, published 2023).

Molecular target: T1, human GPR119 (hGPR119) (Homo sapiens, UniProt Q8TDV5)
T1 construct: expressed in transfected cells
T1 sequence (Q8TDV5 1-335): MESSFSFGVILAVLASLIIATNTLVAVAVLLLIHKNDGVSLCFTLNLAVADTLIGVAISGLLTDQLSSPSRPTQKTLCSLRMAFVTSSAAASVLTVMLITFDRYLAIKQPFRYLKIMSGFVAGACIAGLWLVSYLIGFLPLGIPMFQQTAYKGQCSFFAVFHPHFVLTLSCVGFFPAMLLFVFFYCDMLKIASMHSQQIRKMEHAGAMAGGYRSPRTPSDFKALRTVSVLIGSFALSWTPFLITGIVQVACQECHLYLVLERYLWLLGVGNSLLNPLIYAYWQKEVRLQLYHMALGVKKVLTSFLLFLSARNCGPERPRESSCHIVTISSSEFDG
Test: cAMP accumulation assay (cAMP Gs dynamic HTRF kit)
Format: cell-based
Conditions: CHO-K1 cells stably expressing hGPR119, 4-parameter fit; for Emax: 1 h, % activity normalized to Max/Min controls; for EC50: cAMP accumulation
Outline: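 Read-out is HTRF 665/620 nm ratio after 1 h detection at ambient temperature, converted to % activity against positive and negative controls, EC50 and Max activity by 4-parameter fit. Compounds were titrated onto ~10,000 thawed hGPR119-CHO-K1 cells/well for 60 min at 37° C/5% CO2.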

Compound	Emax [%]	EC50 [nM]
CCCc1cnc(N2CCC(CCCOc3cc(F)c(CC(=O)N4CC(CNC[C@H](O)[C@@H](O)[C@H](O)[C@H](O)CO)C4)c(F)c3)CC2)nc1 [Example 78, 2-(2,6-difluoro-4-(3-(1-(5-propylpyrimidin-2-yl)piperidin-4-yl)propoxy)phenyl)-1-(3-((((2S,3R,4R,5R)-2,3,4,5,6-pentahydroxyhexyl)amino)methyl)azetidin-1-yl)ethan-1-one]	100 to 130	≤ 100
COCc1cnc(N2CCC(CCCOc3ccc(CC(=O)N4CC(CNCC[C@@H](O)C[C@@H](O)CC(=O)O)C4)c(F)c3)CC2)nc1 [Example 82, (3R,5R)-7-[[1-[2-[2-fluoro-4-[3-[1-[5-(methoxymethyl)pyrimidin-2-yl]-4-piperidyl]propoxy]phenyl]acetyl]azetidin-3-yl]methylamino]-3,5-dihydroxy-heptanoicacid]	50 to 100	100 to 1000
CCc1cnc(N2CCC(CCOCc3ccc(CC(=O)N4CC(CNC[C@@H](O)[C@H](O)[C@@H](O)[C@@H](O)CO)C4)c(F)c3)CC2)nc1 [Example 88]	50 to 100	1000 to 10000
CCc1cnc(N2CCC(CCOCc3ccc(CC(=O)N4CC(CNC[C@H](O)[C@@H](O)[C@H](O)[C@H](O)CO)C4)cc3F)CC2)nc1 [Example 89]	50 to 100	1000 to 10000
O=C(Cc1ccc(COCCCC2CCN(c3ncc(Cl)cn3)CC2)cc1F)N1CC(CNC[C@H](O)[C@@H](O)[C@H](O)[C@H](O)CO)C1 [Example 90, 2-[4-[3-[1-(5-chloropyrimidin-2-yl)-4-piperidyl]propoxymethyl]-2-fluoro-phenyl]-1-[3-[[[(2S,3R,4R,5R)-2,3,4,5,6-pentahydroxyhexyl]amino]methyl]azetidin-1-yl]ethanone]	50 to 100	100 to 1000
O=C(Cc1ccc(OCCCC2CCN(c3ncc(CO)cn3)CC2)cc1F)N1CC(CNC[C@H](O)[C@@H](O)[C@H](O)[C@H](O)CO)C1 [Example 93, 2-[2-fluoro-4-[3-[1-[5-(hydroxymethyl)pyrimidin-2-yl]-4-piperidyl]propoxy]phenyl]-1-[3-[[[(2S,3R,4R,5R)-2,3,4,5,6-pentahydroxyhexyl]amino]methyl]azetidin-1-yl]ethanone]	50 to 100	1000 to 10000
COCc1cnc(N2CCC(CCCOc3cc(F)c(CC(=O)N4CC(CNC[C@H](O)[C@@H](O)[C@H](O)[C@H](O)CO)C4)c(F)c3)CC2)nc1 [Example 94, 2-(2,6-difluoro-4-(3-(1-(5-(methoxymethyl)pyrimidin-2-yl)piperidin-4-yl)propoxy)phenyl)-1-(3-((((2S,3R,4R,5R)-2,3,4,5,6-pentahydroxyhexyl)amino)methyl)azetidin-1-yl)ethan-1-one]	100 to 130	100 to 1000

Next, values leading:

Emax [%]	EC50 [nM]	Compound
100 to 130	–	COCc1cnc(N2CCC(CCCOc3ccc(CC(=O)N4CC(CNCCNC(=O)NC(CO)(CO)CO)C4)c(F)c3)CC2)nc1 [Example 81, 1-[2-[[1-[2-[2-fluoro-4-[3-[1-[5-(methoxymethyl)pyrimidin-2-yl]-4-piperidyl]propoxy]phenyl]acetyl]azetidin-3-yl]methylamino]ethyl]-3-[2-hydroxy-1,1-bis(hydroxymethyl)ethyl]urea]
100 to 130	100 to 1000	COC(=O)c1cnc(N2CCC(CCCOc3ccc(CC(=O)N4CC(CNC[C@H](O)[C@@H](O)[C@H](O)[C@H](O)CO)C4)c(F)c3)CC2)nc1 [Example 87, methyl 2-[4-[3-[3-fluoro-4-[2-oxo-2-[3-[[[(2S,3R,4R,5R)-2,3,4,5,6-pentahydroxyhexyl]amino]methyl]azetidin-1-yl]ethyl]phenoxy]propyl]-1-piperidyl]pyrimidine-5-carboxylate]
100 to 130	100 to 1000	COCc1cnc(N2CCC([C@H]3C[C@H]3COCc3ccc(CC(=O)N4CC(CNC[C@H](O)[C@@H](O)[C@H](O)[C@H](O)CO)C4)c(F)c3)CC2)nc1 [Example 96, 2-[2-fluoro-4-[[(1R,2R)-2-[1-[5-(methoxymethyl)pyrimidin-2-yl]-4-piperidyl]cyclopropyl]methoxymethyl]phenyl]-1-[3-[[[(2S,3R,4R,5R)-2,3,4,5,6-pentahydroxyhexyl]amino]methyl]azetidin-1-yl]ethanone]
